# Experimental data published in patent EP1157000B1 (Warner-Lambert Company LLC, priority 1999, dated 2001).
# Structures can show the parent of a compound that is named as a salt.
# Biological target: T1, rBCATc (Rattus norvegicus, UniProt P54690)
# T1 construct: The supernatant was dialyzed with at least three changes of dialysis buffer; from tissue; host or cells: rat brain (high-speed supernatant of homogenate, dialyzed)
# T1 sequence (P54690 1-411): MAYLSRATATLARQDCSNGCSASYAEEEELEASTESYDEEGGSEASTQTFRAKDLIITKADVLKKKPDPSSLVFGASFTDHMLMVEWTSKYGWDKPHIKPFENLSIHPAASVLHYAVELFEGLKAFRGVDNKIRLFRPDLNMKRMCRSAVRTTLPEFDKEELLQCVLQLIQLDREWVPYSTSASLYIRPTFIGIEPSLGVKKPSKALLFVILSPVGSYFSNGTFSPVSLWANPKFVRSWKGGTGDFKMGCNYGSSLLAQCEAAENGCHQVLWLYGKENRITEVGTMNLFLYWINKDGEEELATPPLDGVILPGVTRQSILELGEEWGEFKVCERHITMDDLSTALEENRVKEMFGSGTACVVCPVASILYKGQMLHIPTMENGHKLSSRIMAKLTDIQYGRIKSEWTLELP
# Test: Assay of BCAT ([14C] L-leucine transamination, rat brain supernatant enzyme)
# Format: biochemical
# Conditions: 25 µM [14C] L-leucine, 10 mM 2-oxoglutarate, pH 8.3, 10 min, 22 °C; read-out: rBCATc IC50
# Experimental: Enzyme preparation: Frozen rat brains were thawed on ice and minced into fine pieces. […] The samples were homogenized in Potters homogenizer (B. Bran Biotech International) at 500 rpm for ten strokes, followed by additional ten strokes at 800 rpm. The homogenates were centrifuged in Beckman J2-M1 centrifuge with rotor JA-20 at 19, 000 rpm for 1 hr. […] The resulting enzyme was stored at -80 °C for further assays.
# The solutions for the reaction mixture were made in 10-fold concentrations. After 10 min incubation at room temperature (22 °C), the reaction was stopped by adding 100 µl of 15 mM p-nitrophenyl hydrazine in 2 M HCL. After a few minutes, 1 mL of a toluene-based scintillation liquid (4.5 g of PPO and 0.5 g ofbis-MSB in 1 liter of toluene) was added, the tube was capped and mixed thoroughly with a Vortex mixer. […] Six hundreds µl of organic layer from each tube was placed into scintillation vials, followed by adding 10 ml of scintillation cocktail for counting.
row,Compound,IC50 [µM]
1,"COC(CNCC1(CC(=O)O)C[C@H](C)C[C@H](C)C1)OC (stereo partly drawn) [Example 44, {(3R, 5S)-1-[(2,2-Dimethoxy-ethylamino)-methyl]-3,5-dimethylcyclohexyl}-acetic acid; hydrochloride salt]",2730
2,"C[C@@H]1C[C@H](C)CC(CNCC2CCCC2)(CC(=O)O)C1 (stereo partly drawn) [Example 45, {(3R, 5S)-1-[(Cyclopentylmethyl-amino)-methyl]-3,5-dimethylcyclohexyl}-acetic acid; hydrochloride salt]",1330
3,"CCC(C)CNCC1(CC(=O)O)CCCCC1 (stereo not drawn) [Example 26, {1-[(2-Methyl-butylamino)-methyl]-cyclohexyl}-acetic acid; hydrochloride salt]",8590
4,"CC(C)(C)OC(=O)NCC1(CC(=O)O)CCCCC1 [Example 39, [1-(tert-Butoxycarbonylamino-methyl)-cyclohexyl]-acetic acid]",933
5,"CN(Cc1ccccc1)CC1(CC(=O)O)CCCCC1 [Example 55, {1-[(Benzyl-methyl-amino)-methyl]-cycloheayl}-acetic acid; hydrochloride salt]",9240
6,"O=C(O)CC1(CNCC2CCCCC2)CCCCC1 [Example 38, {1-[(Cyclohexylmethyl-amino)-methyl]-cyclohexyl}-acetic acid; hydrochloric salt]",2620
7,"C[C@@H]1C[C@H](C)CC(CNC2CCC2)(CC(=O)O)C1 (stereo partly drawn) [Example 41, ((3R, 5S)-1-Cyclobutylaminomethyl-3,5-dimethyl-cyclohexyl)-acetic acid; hydrochloride salt]",363
8,"CCCCNC[C@@]1(CC(=O)O)C[C@H](C)C[C@H](C)C1 [Example 13, 1α,3β,5β-(1-Butylaminomethyl-3,5-dimethyl-cyclohexyl)-acetic acid; hydrochloride salt]",> 10000
9,"CNCC1(CC(=O)O)CCCCC1 [Example 54, (1-methylaminomethyl-cyclohexyl)-acetic acid; hydrochloride salt]",217
10,"CCC(C)CNCC1(CC(=O)O)C[C@H](C)C[C@H](C)C1 (stereo partly drawn) [Example 42, {(3R, 5S)-3,5-Dimethyl-1-[(2-methyl-butylamino)-methyl]-cyclohexyl}-acetic acid; hydrochloride salt]",669
11,"C[C@H]1CC(CN)(CC(=O)O)C[C@@H]1C [Example 7, (+)-(trans)-(1-Aminomethyl-3,4-dimethyl-cyclopentyl)-acetic acid hydrochloride]",2170
12,"CN(C)CC1(CC(=O)O)CCCCC1 [Example 51, (1-Dimethylaminomethyl-cyclohexyl)-acetic acid; hydrochloride salt]",> 10000
13,"CC(C)CNC[C@@]1(CC(=O)O)C[C@H](C)C[C@H](C)C1 [Example 17, 1α,3β,5β-(1-(Isobutylamino-methyl)-3,5-dimethyl-cyclohexyl]-acetic acid hydrochloride salt]",> 10000
14,"CCCC1CCC(CN)(CC(=O)O)CC1 (stereo not drawn) [Example 61, (1-Aminomethyl-4-propyl-cyclohexyl)-acetic acid; hydrochloric salt]",114

# Same assay, conditions: rBCATc IC50, 25 µM [14C] L-leucine, 10 mM 2-oxoglutarate, pH 8.3, 10 min, 22 °C
row,Compound,IC50 [µM]
1,"CC1CCCCC1(CN)CC(=O)O (single isomer, unassigned) [Example 2, (1-Aminomethyl-2-methyl-cyclohexyl)-acetic acid hydrochloride]",1140
